Data taken from patent publication US9914735B2, “Heteroaryl Syk inhibitors” (Boehringer Ingelheim International GmbH, priority 2014, dated 2018).
Like-named read-outs stand apart in the source and are kept apart here.

Experiments:
Format in all cases: biochemical
[1] = molecular target: Recombinant human Syk (amino acids 342-635), GST-Syk kinase fusion protein (Homo sapiens (Human), UniProt P43405); experiment: Syk kinase test (Kinase Glo luminescence)
Experimental: (§1) The output file of the reader is a csv file that contains the well number and measured relative light units (RLU). For data evaluation and calculation, the measurement of the negative control was set as 100% ctrl and the measurement of the positive control was set as 0% ctrl. Based on this values the % value for the measurement of each substance concentration was calculated using an Assay Explorer software (Accelrys). Normally, the % ctrl values calculated are between 0% and 100% values but may also occur outside these limits in individual cases based on variability or compound characteristics. The IC50 values were calculated from the % ctrl values using Assay Explorer software. Calculation:[y=(a−d)/(1+(x/c)^b)+d] a=low value, d=high value; x=conc M; c=IC50 M; b=hill; y=% ctrl.

[2] = molecular target: Recombinant human Aurora B (amino acids 1-344) (Homo sapiens (Human), UniProt Q96GD4); experiment: Aurora B kinase test (ADP Glo luminescence)
Experimental: The activity of the Aurora B kinase protein was determined using the ADP Glo® Luminescence Kinase test (Promega; V9103X).
Serial Dilution is done in 1:10 steps in 100% DMSO.
Then 20 μl Kinase detection mix (Detection Buffer #V913B Promega; Kinase Detection Substrate #V914B Promega) were added and incubated for 40 minutes at room temperature.
as §1, with “measured RLU.” for “measured relative light units (RLU).”, “as 0%” for “as 100%”, “as 100%” for “as 0%”, “software. Calculation: [y=(a−d)/(1+(x/c)^b)+d],” for “software. Calculation:[y=(a−d)/(1+(x/c)^b)+d]”

FLT3 = FLT3 (Homo sapiens (Human), UniProt P36888); experiment: FLT3 kinase test (Z'-LYTE)
Experimental: The activity of FLT3 is measured using the Z′-LYTETM assay technology from Invitrogen (#PV3191)
The reaction is started by addition of 2.5 μl of the 4×ATP solution.
Positive controls are reaction mixtures containing no test compound; negative controls (blanks) are reaction mixtures containing no kinase. As a further control, the phosphopeptide solution is added to wells without kinase (=100% phosphorylation control).
The reaction is performed for 1 h at room temperature before 5 μl of the development solution is added. After a further incubation for 1 h at room temperature 5 μl of the stop reagent is added.
The output text file is evaluated in an “MS-Excel—VB-Makro” and “GraphPadPrism” (Version 5) (GraphPad Software Inc.) is used to calculate the results. Data for the inhibition of FLT3 are reported in M. data for the inhibition of the protease are reported in % CTL.

[3] = Table 1, read-out: SYK-inhibition IC50-value
[4] = Table 1, read-out: AURB-inhibition IC50-value
[5] = Table 1, read-out: FLT3-inhibition IC50-value

Chain of Recombinant human Aurora B (amino acids 1-344) (Q96GD4 whole entry, the tested form may be a part): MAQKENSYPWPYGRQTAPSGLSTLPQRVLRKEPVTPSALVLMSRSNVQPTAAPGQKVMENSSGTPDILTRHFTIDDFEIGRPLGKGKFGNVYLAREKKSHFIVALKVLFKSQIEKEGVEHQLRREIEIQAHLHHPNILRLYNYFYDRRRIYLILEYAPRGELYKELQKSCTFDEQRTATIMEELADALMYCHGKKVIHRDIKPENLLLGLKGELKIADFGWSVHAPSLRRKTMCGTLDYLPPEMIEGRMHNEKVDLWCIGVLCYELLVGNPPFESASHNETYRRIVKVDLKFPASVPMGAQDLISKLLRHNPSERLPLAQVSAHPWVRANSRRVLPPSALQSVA
Chain of FLT3 (P36888 27-993): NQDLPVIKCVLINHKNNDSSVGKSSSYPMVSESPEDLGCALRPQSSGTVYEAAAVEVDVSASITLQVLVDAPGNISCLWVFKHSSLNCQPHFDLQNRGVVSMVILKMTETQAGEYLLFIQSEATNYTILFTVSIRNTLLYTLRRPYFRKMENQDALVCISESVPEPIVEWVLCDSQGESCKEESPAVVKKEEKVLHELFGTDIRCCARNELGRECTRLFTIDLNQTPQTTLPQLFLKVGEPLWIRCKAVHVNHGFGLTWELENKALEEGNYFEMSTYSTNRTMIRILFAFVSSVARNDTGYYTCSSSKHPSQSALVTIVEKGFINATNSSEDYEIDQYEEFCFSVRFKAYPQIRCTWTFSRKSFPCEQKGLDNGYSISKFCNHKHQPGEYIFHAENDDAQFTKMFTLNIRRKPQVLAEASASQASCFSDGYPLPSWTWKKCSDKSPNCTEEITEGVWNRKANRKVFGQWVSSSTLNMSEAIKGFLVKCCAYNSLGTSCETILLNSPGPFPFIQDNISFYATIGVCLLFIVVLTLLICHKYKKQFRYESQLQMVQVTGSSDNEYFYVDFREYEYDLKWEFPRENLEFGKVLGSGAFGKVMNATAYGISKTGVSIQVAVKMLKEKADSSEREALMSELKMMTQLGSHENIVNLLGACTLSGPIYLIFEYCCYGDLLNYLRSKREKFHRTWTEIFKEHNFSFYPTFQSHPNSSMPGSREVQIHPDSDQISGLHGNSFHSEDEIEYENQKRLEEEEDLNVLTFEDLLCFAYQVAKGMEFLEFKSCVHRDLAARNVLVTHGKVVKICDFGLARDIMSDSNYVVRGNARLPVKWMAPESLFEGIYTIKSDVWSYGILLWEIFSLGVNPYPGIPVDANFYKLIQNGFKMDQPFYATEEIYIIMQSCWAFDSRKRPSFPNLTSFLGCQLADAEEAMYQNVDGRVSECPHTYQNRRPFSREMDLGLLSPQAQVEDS

Row | SMILES | IC50 ([1]; read-out: IC50 in μM (SYK-Inhibition)) | IC50 ([2]; read-out: IC50 in μM (AURB-Inhibition)) | IC50 (FLT3; read-out: IC50 in μM (FLT3-Inhibition)) | IC50 [1, 3] | IC50 [2, 4] | IC50 (FLT3; [5]) | IC50 ([2]; read-out: AURB-inhibition IC50-value)
1 | C[C@@H](Oc1cc(-c2ccc3c(c2)ncn3C)cc2ncccc12)[C@H]1CNC(=O)C1 [94 of WO 2013/014060] | 0.001 µM | 0.298 µM | 0.267 µM | – | – | – | –
2 | C[C@@H](Oc1nc(-c2cnn(C3CCCCO3)c2)cc2nn(C)cc12)[C@H]1CNC(=O)C1 (some centres unmarked) [Example 3] | – | – | – | 0.0466 µM | > 50 µM | 17.4 µM | –
3 | C[C@@H](Oc1nc(-c2cnn(C3CCCCC3)c2)cc2nn(C)cc12)[C@H]1CNC(=O)C1 [Example 7, (R)-4-((R)-1-(6-(1-cyclohexyl-1H-pyrazol-4-yl)-2-methyl-2H-pyrazolo[4,3-c]pyridin-4-yloxy)ethyl)pyrrolidin-2-one] | – | – | – | 0.0147 µM | 37.3 µM | 5.77 µM | –
4 | C[C@@H](Oc1nc(-c2cnn(C3CCNCC3)c2)cc2nn(C)cc12)[C@H]1CNC(=O)C1 [Example 9, (4R)-4-[(1R)-1-[2-Methyl-6-[1-(4-piperidyl)pyrazol-4-yl]pyrazolo[4,3-c]pyridin-4-yl]oxyethyl]pyrrolidin-2-one] | – | – | – | 0.0424 µM | > 50 µM | 3.67 µM | –
5 | C[C@@H](Oc1nc(-c2cnn(C3CCC(F)(F)CC3)c2)cc2nn(C)cc12)[C@H]1CNC(=O)C1 [Example 10, (4R)-4-[(1R)-1-[6-[1-(4,4-Difluorocyclohexyl)pyrazol-4-yl]-2-methyl-pyrazolo[4,3-c]pyridin-4-yl]oxyethyl]pyrrolidin-2-one] | – | – | – | 0.0218 µM | 36 µM | 8.03 µM | –
6 | C[C@@H](Oc1nc(-c2cc3nn(C)cc3c(O[C@H](C)[C@H]3CNC(=O)C3)n2)cc2nn(C)cc12)[C@@H]1CNC(=O)C1 [Example 11, (4S)-4-[(1R)-1-[2-methyl-6-[2-methyl-4-[(1R)-1-[(3R)-5-oxopyrrolidin-3-yl]ethoxy]-pyrazolo[4,3-c]pyridin-6-yl]pyrazolo[4,3-c]pyridin-4-yl]oxyethyl]pyrrolidin-2-one] | – | – | – | 0.935 µM | > 50 µM | 37.4 µM | –
7 | C[C@@H](Oc1nc(-c2cnn([C@H]3CC[C@H](N4CCN(C)C(=O)C4)CC3)c2)cc2nn(C)cc12)[C@H]1CNC(=O)C1 [Example 12, 1-methyl-4-[4-[4-[2-methyl-4-[(1R)-1-[(3R)-5-oxopyrrolidin-3-yl]ethoxy]pyrazolo[4,3-c]pyridin-6-yl]pyrazol-1-yl]-cyclohexyl]piperazin-2-one] | – | – | – | 0.0123 µM | 34.1 µM | 8.33 µM | –
8 | C[C@@H](Oc1nc(-c2cc3nn(C)cc3c(=O)[nH]2)cc2nn(C)cc12)[C@H]1CNC(=O)C1 [Example 13, 2-Methyl-6-[2-methyl-4-[(1R)-1-[(3R)-5-oxopyrrolidin-3-yl]ethoxy]pyrazolo[4,3-c]pyridin-6-yl]-5H-pyrazolo[4,3-c]pyridin-4-one] | – | – | – | 0.831 µM | > 50 µM | > 50 µM | –
9 | C[C@@H](Oc1cc(-c2ccn(C)n2)cc2nn(C)cc12)[C@H]1CNC(=O)C1 [Example 14, (4R)-4-[(1R)-1-[2-methyl-6-(1-methylpyrazol-3-yl)indazol-4-yl]oxyethyl]-pyrrolidin-2-one] | – | – | – | 0.0421 µM | – | 40.8 µM | –
10 | COc1ccc2[nH]cc(-c3cc4nn(C)cc4c(O[C@H](C)[C@H]4CNC(=O)C4)n3)c2c1 [Example 53, (4R)-4-[(1R)-1-[6-(5-methoxy-1H-indol-3-yl)-2-methyl-pyrazolo[4,3-c]pyridin-4-yl]oxyethyl]pyrrolidin-2-one] | – | – | – | – | > 50 µM | 34.1 µM | –
11 | COc1cc(-c2cc3nn(C)cc3c(O[C@H](C)[C@H]3CNC(=O)C3)n2)ccc1OC1CCOCC1 [Example 73, (4R)-4-[(1R)-1-[6-(3-Methoxy-4-tetrahydropyran-4-yloxy-phenyl)-2-methyl-pyrazolo[4,3-c]pyridin-4-yl]oxyethyl]pyrrolidin-2-one] | – | – | – | – | – | 4.17 µM | 49.1 µM
12 | C[C@@H](Oc1nc(-c2cnn(C3CCN(C)CC3)c2)cc2nn(C)cc12)[C@H]1CNC(=O)C1 [Example 82, (4R)-4-[(1R)-1-[2-Methyl-6-[1-(1-methyl-4-piperidyl)pyrazol-4-yl]pyrazolo [4,3-c]pyridin-4-yl]oxyethyl]pyrrolidin-2-one] | – | – | – | – | > 50 µM | 7.78 µM | –
